Legend:
Calcitonin receptor = target: T1, Calcitonin receptor (Homo sapiens, UniProt P30988); format: cell membranes, Membrane; settings: t47d; also: in other assays of this panel Not Active means under 50% inhibition at 10 µM
T1 sequence (P30988 whole entry): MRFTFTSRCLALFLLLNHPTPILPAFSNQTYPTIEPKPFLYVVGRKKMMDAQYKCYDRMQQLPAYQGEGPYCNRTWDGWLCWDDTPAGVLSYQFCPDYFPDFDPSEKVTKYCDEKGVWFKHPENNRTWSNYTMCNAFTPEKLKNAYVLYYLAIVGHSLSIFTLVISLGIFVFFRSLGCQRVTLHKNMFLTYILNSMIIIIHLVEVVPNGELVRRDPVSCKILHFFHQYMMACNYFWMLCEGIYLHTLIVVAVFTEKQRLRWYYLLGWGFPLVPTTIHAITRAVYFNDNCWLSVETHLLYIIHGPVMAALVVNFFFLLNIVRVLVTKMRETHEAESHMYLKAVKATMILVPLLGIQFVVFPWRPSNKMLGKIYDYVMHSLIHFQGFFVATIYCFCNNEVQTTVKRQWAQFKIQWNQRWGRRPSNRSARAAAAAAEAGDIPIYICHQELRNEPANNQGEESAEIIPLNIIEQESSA

[1] = target: Matrix metalloproteinase-9 (Homo sapiens, UniProt P14780); format: cell-based;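 also: inhibition of isolated MMP-9 enzyme activity toward a synthetic peptide substrate, from the DrugMatrix protease screening panel; in other assays of this panel Not Active means under 50% inhibition at 10 µM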
Matrix metalloproteinase-9, sequence (P14780 whole entry): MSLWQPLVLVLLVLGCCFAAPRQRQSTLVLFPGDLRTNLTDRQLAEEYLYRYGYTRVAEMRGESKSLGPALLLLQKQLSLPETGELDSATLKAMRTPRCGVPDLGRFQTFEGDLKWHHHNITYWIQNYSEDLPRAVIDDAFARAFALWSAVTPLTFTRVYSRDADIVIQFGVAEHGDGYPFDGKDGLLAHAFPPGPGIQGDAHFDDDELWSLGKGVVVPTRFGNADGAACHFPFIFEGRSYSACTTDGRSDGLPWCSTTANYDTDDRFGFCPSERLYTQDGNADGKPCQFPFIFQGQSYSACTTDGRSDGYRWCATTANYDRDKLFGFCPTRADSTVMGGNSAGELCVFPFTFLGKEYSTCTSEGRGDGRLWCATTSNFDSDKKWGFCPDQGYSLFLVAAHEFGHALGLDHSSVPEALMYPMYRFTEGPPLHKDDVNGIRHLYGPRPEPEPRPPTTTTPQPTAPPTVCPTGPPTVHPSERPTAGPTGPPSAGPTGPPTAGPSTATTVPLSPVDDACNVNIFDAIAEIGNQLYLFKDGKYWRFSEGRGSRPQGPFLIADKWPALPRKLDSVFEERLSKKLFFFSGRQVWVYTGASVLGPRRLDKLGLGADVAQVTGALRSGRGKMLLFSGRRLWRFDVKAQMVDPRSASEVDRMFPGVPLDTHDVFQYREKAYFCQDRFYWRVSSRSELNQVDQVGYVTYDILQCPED

[2] = target: 5-hydroxytryptamine receptor 2B (Homo sapiens, UniProt P41595); format: cell membranes, CHO-K1, Membrane; also: in other assays of this panel Not Active means under 50% inhibition at 10 µM
5-hydroxytryptamine receptor 2B, sequence (P41595 whole entry): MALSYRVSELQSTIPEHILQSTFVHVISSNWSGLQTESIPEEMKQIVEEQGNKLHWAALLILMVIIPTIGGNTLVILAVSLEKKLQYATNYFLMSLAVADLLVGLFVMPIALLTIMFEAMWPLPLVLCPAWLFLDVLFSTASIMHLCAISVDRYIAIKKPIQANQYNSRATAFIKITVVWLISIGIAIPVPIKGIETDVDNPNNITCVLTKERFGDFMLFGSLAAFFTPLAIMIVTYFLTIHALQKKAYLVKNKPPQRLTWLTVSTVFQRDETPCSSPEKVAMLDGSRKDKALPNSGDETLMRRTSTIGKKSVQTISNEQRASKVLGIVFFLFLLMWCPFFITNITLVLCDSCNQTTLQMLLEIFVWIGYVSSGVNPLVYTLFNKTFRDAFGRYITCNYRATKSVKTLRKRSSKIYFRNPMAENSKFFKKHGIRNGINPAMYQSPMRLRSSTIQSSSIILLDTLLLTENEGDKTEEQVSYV

[3] = target: 5-hydroxytryptamine receptor 6 (Homo sapiens, UniProt P50406); format: cell membranes, HeLa, Membrane; also: in other assays of this panel Not Active means under 50% inhibition at 10 µM
5-hydroxytryptamine receptor 6, sequence (P50406 whole entry): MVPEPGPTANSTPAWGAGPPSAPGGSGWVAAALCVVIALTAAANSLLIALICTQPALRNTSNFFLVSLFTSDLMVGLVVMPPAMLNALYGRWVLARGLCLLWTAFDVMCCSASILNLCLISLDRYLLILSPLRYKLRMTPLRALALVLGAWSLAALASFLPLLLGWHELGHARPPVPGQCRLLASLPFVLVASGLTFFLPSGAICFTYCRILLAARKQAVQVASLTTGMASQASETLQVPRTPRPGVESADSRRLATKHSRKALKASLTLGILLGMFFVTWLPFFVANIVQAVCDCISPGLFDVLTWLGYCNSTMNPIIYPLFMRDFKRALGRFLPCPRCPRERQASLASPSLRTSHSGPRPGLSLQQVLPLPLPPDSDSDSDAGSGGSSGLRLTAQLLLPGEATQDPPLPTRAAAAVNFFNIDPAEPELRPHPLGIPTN

[4] = target: T2, Amine oxidase [flavin-containing] A (Homo sapiens, UniProt P21397); assay: DRUGMATRIX: Monoamine Oxidase MAO-A enzyme inhibition (substrate: Kynuramine); set-up: species or system BTI-TN-5B1-4; settings: bti-tn-5b1-4; Not Active = under 50% inhibition at 10 µM
T2 sequence (P21397 whole entry): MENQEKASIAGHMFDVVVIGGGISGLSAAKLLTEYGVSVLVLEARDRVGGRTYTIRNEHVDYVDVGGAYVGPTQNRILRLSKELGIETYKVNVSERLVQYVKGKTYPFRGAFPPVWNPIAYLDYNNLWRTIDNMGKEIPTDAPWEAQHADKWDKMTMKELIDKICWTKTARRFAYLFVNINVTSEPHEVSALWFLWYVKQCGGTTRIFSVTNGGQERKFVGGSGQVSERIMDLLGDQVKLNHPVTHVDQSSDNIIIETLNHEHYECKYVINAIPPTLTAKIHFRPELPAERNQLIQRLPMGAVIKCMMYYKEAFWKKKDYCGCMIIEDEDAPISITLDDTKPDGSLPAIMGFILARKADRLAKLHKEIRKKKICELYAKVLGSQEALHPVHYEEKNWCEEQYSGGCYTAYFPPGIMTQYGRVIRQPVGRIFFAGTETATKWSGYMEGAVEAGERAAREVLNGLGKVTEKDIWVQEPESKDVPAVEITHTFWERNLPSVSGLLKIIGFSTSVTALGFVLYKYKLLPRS

[5] = target: 5-hydroxytryptamine receptor 1B (Rattus norvegicus, UniProt P28564); format: cell membranes, Wistar, Cerebral cortex, Membrane; also: in other assays of this panel Not Active means under 50% inhibition at 10 µM
5-hydroxytryptamine receptor 1B, sequence (P28564 whole entry): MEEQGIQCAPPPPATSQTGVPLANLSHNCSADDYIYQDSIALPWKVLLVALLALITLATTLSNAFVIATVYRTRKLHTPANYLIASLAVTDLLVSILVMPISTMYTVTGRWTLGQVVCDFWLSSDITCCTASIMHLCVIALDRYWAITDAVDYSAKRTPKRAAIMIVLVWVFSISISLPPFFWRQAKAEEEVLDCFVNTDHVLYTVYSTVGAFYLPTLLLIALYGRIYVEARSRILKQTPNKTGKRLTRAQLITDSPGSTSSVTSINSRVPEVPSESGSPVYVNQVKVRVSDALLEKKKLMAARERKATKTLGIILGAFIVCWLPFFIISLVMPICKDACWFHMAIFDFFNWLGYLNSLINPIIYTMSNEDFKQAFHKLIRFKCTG

Neutrophil elastase = target: T3, Neutrophil elastase (Homo sapiens, UniProt P08246); format: tissue-based
T3 sequence (P08246 whole entry): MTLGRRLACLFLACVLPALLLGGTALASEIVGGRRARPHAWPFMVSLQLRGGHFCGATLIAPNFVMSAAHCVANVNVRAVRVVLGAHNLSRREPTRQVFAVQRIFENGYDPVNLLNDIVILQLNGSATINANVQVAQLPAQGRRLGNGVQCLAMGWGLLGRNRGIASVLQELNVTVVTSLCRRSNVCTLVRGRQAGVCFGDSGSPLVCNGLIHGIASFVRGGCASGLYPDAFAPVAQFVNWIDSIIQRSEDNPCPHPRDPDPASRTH

Row | Compound | IC50 (Calcitonin receptor) | IC50 [1] | IC50 ([2]; read-out: IC50) [nM] | Ki ([2]; read-out: Ki) [nM] | IC50 ([3]; read-out: IC50) [nM] | Ki ([3]; read-out: Ki) [nM] | IC50 [4] | IC50 ([5]; read-out: IC50) [nM] | Ki ([5]; read-out: Ki) [nM] | IC50 (Neutrophil elastase) | IC50 ([2]; cho-k1) | IC50 ([3]; hela) | IC50 [5] | Ki (Calcitonin receptor) | Ki [1] | Ki ([2]; cho-k1) | Ki ([3]; hela) | Ki [4] | Ki [5] | Ki (Neutrophil elastase)
1 | Clc1ccc(COC(Cn2ccnc2)c2ccc(Cl)cc2Cl)c(Cl)c1 (configuration not stated) [MICONAZOLE] | Not Active | Not Active | 5550 | 3530 | 10900 | 5060 | Not Active | 20600 | 9360 | Not Active |  |  |  |  |  |  |  |  |  | 
2 | CC1CCC(NC(=O)N(CCCl)N=O)CC1 (configuration not stated) [SEMUSTINE] | Not Active | Not Active |  |  |  |  | Not Active |  |  | Not Active | Not Active | Not Active | Not Active |  |  |  |  |  |  | 
3 | O=C1C[C@@H]2OCC=C3CN4CC[C@]56c7ccccc7N1[C@H]5[C@H]2[C@H]3C[C@H]46 [STRYCHNINE] | Not Active | Not Active |  |  |  |  | Not Active |  |  | Not Active | Not Active | Not Active | Not Active |  |  |  |  |  |  | 
4 | C[S+]([O-])c1ccc(-c2nc(-c3ccncc3)c(-c3ccc(F)cc3)[nH]2)cc1 (configuration not stated) [SB-203580] | Not Active | Not Active |  |  |  |  | Not Active |  |  | Not Active | Not Active | Not Active | Not Active |  |  |  |  |  |  | 
5 | CC(=N)S [THIOACETAMIDE] | Not Active | Not Active |  |  |  |  | Not Active |  |  | Not Active | Not Active | Not Active | Not Active |  |  |  |  |  |  | 
6 | COC(=O)[C@H]1[C@H]2C[C@@H]3c4[nH]c5cc(OC)ccc5c4CCN3C[C@H]2C[C@@H](OC(=O)c2cc(OC)c(OC)c(OC)c2)[C@@H]1OC [RESERPINE] | Not Active | Not Active |  |  |  |  | Not Active |  |  | Not Active | Not Active | Not Active | Not Active |  |  |  |  |  |  | 
7 | O=c1[nH]c(=O)n(C2CCCO2)cc1F (configuration not stated) [TEGAFUR] | Not Active | Not Active |  |  |  |  | Not Active |  |  | Not Active | Not Active | Not Active | Not Active |  |  |  |  |  |  | 
8 | C[N+](C)(C)CCOC(=O)CCC(=O)OCC[N+](C)(C)C.[Cl-].[Cl-] [SUCCINYLCHOLINE CHLORIDE] | Not Active | Not Active |  |  |  |  | Not Active |  |  | Not Active | Not Active | Not Active | Not Active |  |  |  |  |  |  | 
9 | CCCCC(=O)N(Cc1ccc(-c2ccccc2-c2nnn[nH]2)cc1)[C@H](C(=O)O)C(C)C | Not Active | Not Active |  |  |  |  | Not Active |  |  | Not Active | Not Active | Not Active | Not Active |  |  |  |  |  |  | 
10 | CN1CCN(C2=Nc3cc(Cl)ccc3Nc3ccccc32)CC1 [CLOZAPINE] | Not Active | Not Active |  |  |  |  | Not Active |  |  | Not Active |  |  |  |  |  |  |  |  |  | 
11 | Oc1ccc2c3c1O[C@H]1[C@@H](O)CC[C@@]4(O)[C@@H](C2)N(CC2CCC2)CC[C@]314 [NALBUPHINE] | Not Active | Not Active |  |  |  |  | Not Active |  |  | Not Active | Not Active | Not Active | Not Active |  |  |  |  |  |  | 
12 | CN(C)C(=O)C(CCN1CCC(O)(c2ccc(Cl)cc2)CC1)(c1ccccc1)c1ccccc1 [LOPERAMIDE] | Not Active | Not Active | 4100 | 2610 |  |  | Not Active |  |  | Not Active |  | Not Active | Not Active |  |  |  |  |  |  | 
13 | O=C(O)c1ccccc1O [SALICYLIC ACID] | Not Active | Not Active |  |  |  |  | Not Active |  |  | Not Active | Not Active | Not Active | Not Active |  |  |  |  |  |  | 
14 | Nc1ccc(S(=O)(=O)NC(=O)c2ccccc2)cc1 [SULFABENZAMIDE] | Not Active | Not Active |  |  |  |  | Not Active |  |  | Not Active | Not Active | Not Active | Not Active |  |  |  |  |  |  | 
15 | C[C@@](Cc1ccc(O)c(O)c1)(NN)C(=O)O.O [CARBIDOPA] | Not Active | Not Active |  |  |  |  | Not Active |  |  | Not Active | Not Active | Not Active | Not Active |  |  |  |  |  |  | 
16 | CCCCCCCCNC(C)C(O)c1ccc(SC(C)C)cc1 (configuration not stated) [SULOCTIDIL] | Not Active | Not Active | 939 | 598 |  |  | Not Active |  |  | Not Active |  | Not Active | Not Active |  |  |  |  |  |  | 
17 | CN1CCN(CCCN2c3ccccc3Sc3ccc(C(F)(F)F)cc32)CC1 [TRIFLUOPERAZINE] | Not Active | Not Active |  |  |  |  | Not Active |  |  | Not Active | Not Active | Not Active | Not Active |  |  |  |  |  |  | 
18 | C[C@]12C=CC(=O)C=C1CC[C@@H]1[C@@H]2C(=O)C[C@@]2(C)[C@H]1CC[C@]2(O)C(=O)CO [PREDNISONE] | Not Active | Not Active |  |  |  |  | Not Active |  |  | Not Active | Not Active | Not Active | Not Active |  |  |  |  |  |  | 
19 | OCCOCCN1CCN(C2=Nc3ccccc3Sc3ccccc32)CC1 [QUETIAPINE] | Not Active | Not Active |  |  |  |  | Not Active |  |  | Not Active |  | Not Active | Not Active |  |  |  |  |  |  | 
20 | CC(C)NC[C@H](O)COc1cccc2ccccc12 [LEVOPROPRANOLOL] | Not Active | Not Active |  |  | 998 | 463 | Not Active |  |  | Not Active |  |  | Not Active |  |  |  |  |  |  | 
21 | O=C(O)CCCCC1CCSS1 (stereo not drawn) [LIPOIC ACID, ALPHA] | Not Active | Not Active |  |  |  |  | Not Active |  |  | Not Active | Not Active | Not Active | Not Active |  |  |  |  |  |  | 
22 | CC(C)NC[C@@H](O)COc1cccc2ccccc12 [DEXPROPRANOLOL] | Not Active | Not Active |  |  |  |  | Not Active |  |  | Not Active |  | Not Active | Not Active |  |  |  |  |  |  | 
23 | Cc1ccc(C(=O)c2ccc(CC(=O)O)n2C)cc1 [TOLMETIN] | Not Active | Not Active |  |  |  |  | Not Active |  |  | Not Active | Not Active | Not Active | Not Active |  |  |  |  |  |  | 
24 | CC(=O)OCC(COC(C)=O)OC(C)=O [TRIACETIN] | Not Active | Not Active |  |  |  |  | Not Active |  |  | Not Active | Not Active | Not Active | Not Active |  |  |  |  |  |  | 
25 | TRANSPLATIN | Not Active | Not Active |  |  |  |  | Not Active |  |  | Not Active | Not Active | Not Active | Not Active | Not Active | Not Active | Not Active | Not Active | Not Active | Not Active | Not Active
26 | O=C(O)COc1ccc(C(=O)c2cccs2)c(Cl)c1Cl | Not Active | Not Active |  |  |  |  | Not Active |  |  | Not Active | Not Active | Not Active | Not Active |  |  |  |  |  |  | 
27 | CN1[C@@H]2CC[C@H]1C[C@@H](OC(c1ccccc1)c1ccccc1)C2 [BENZTROPINE] | Not Active | Not Active | 200 | 127 | 2790 | 1290 | Not Active |  |  | Not Active |  |  | Not Active |  |  |  |  |  |  | 
28 | ZIRCONIUM(IV) CHLORIDE | Not Active | Not Active |  |  |  |  | Not Active |  |  | Not Active | Not Active | Not Active | Not Active | Not Active | Not Active | Not Active | Not Active | Not Active | Not Active | Not Active
